The values below come from patent US6734182B2, “Aryl sulfonamides and sulfamide derivatives and uses thereof” (Synaptic Pharmaceutical Corporation, priority 1995, dated 2004).

One test concerns the target T1, human Y2 receptor (Homo sapiens, UniProt P49146).
T1 construct: expressed in transfected cells
T1 sequence (P49146 1-381): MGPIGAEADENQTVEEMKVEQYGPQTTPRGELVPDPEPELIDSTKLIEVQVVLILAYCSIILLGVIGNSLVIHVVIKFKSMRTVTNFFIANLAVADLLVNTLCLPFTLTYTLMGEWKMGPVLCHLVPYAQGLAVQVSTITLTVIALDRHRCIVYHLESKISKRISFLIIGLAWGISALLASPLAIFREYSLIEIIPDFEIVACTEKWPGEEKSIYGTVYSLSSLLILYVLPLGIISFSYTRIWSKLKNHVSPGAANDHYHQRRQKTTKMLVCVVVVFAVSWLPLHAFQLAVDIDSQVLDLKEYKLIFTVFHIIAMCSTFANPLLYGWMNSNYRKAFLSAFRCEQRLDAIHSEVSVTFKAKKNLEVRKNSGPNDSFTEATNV
The test is described as follows: Radioligand binding to cloned human Y2 receptor (125I-PYY). The conditions noted are these: cloned human Y2, stably transfected cells, read-out: Binding Affinity (K1 (nM) vs. 125I-PYY) Human Receptor Y2. The method, then:
(§1) Human Y1, human Y2, and rat Y5 receptors were co-transfected with a G-418 resistant gene into the human embryonic kidney 293 cell line by a calcium phosphate transfection method (Cullen, 1987). Stably transfected cells were selected with G-418. Human Y4 and human Y5 receptors were similarly transfected into mouse fibroblast LM(tk−) cells and NIH-3T3 cells.
(§2) Binding of the compounds of the present invention to the human Y1, Y2, Y4 and Y5 receptors was evaluated using stably transfected 293 or LM(tk−) cells as described above. Stably transfected cell lines which may be used for binding assays include, for example, for the human Y1 receptor, 293-hY1-5 (deposited Jun. 4, 1996, under ATCC Accession No. CRL-12121), for the human Y2 receptor, 293-hY2-10 (deposited Jan. 27, 1994, under ATCC Accession No. CRL-11537), for the human Y4 receptor, L-hY4-3 (deposited Jan. 11, 1995, under ATCC Accession No. CRL-11779), and for the human Y5 receptor, L-hY5-7 (deposited Nov. 15, 1995, under ATCC Accession No. CRL-11995).
(§3) Membranes were harvested from COS-7 cells 48 hours after transient transfection. Adherent cells were washed twice in ice-cold phosphate buffered saline (138 mM NaCl, 8.1 mM Na2HPO4, 2.5 mM KCl, […], 0.9 mM CaCl2, 0.5 mM MgCl2, pH 7.4) and lysed by sonication in ice-cold sonication buffer (20 mM Tris-HCl, 5 mM EDTA, pH 7.7). Large particles and debris were cleared by low speed centrifugation (200 x g, 5 min, 4° C.). Membranes were collected from the supernatant fraction by centrifugation (32,000 x g, 18 min, […] ), washed with ice-cold hypotonic buffer, and collected again by centrifugation (32,000 x g, 18 min, 4° C.). […] Protein concentration was measured by the Bradford method (Bradford, 1976) using Bio-Rad Reagent, with bovine serum albumin as a standard. Membranes were held on ice for up to one hour and used fresh, or flash-frozen and stored in liquid nitrogen.
(§4) Membranes were prepared similarly from 293, LM(tk−), and NIH-3T3 cells. To prepare membranes from baculovirus infected cells, 2×10^7 Sf21 cells were grown in 150 mm tissue culture dishes and infected with a high-titer stock of hY5BB3. Cells were incubated for 2-4 days at 27° C., no CO2 be fore harvesting and membrane preparation as described above.

A further test concerns the target T2, human Y4 receptor (Homo sapiens, UniProt P50391).
T2 construct: expressed in transfected cells
The test is described as follows: Radioligand binding to cloned human Y4 receptor (125I-PYY). The settings on record: cloned human Y4, stably transfected cells, read-out: Binding Affinity (K1 (nM) vs. 125I-PYY) Human Receptor Y4. The protocol:
as §1, §2, §3, §4

In test [1] the test system is food intake in food-deprived rats. The test can be described thus: Food intake in food-deprived rats (24 h food deprivation). The class given is in vivo, rat. Further details: concentration or dose not given beside the values. The settings on record: rats after 24 h food deprivation; two hours after administration of test compound.
For another test, the target named is T3, human 5HT1F receptor (Homo sapiens, UniProt P30939).
T3 construct: expressed in transfected cells
T3 sequence (P30939 1-366): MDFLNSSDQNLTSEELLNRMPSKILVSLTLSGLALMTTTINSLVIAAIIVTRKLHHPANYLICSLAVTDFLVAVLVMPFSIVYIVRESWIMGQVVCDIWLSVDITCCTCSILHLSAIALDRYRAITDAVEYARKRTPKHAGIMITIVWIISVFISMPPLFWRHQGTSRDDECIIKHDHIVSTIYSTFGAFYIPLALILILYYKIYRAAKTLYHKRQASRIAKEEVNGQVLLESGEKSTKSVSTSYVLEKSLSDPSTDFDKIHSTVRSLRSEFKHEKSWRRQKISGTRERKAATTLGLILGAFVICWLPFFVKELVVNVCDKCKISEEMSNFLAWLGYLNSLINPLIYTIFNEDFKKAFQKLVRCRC
The test is described as follows: Binding to human 5HT1F receptor ([3H]serotonin). The settings on record: cloned human receptor; read-out: Receptor (pKi) 5HT1F (converted). The protocol: (§5) 5HT1Dα, 5HT1Dβ, 5HT1E, 5HT1F Receptors: LM(tk−) clonal cell lines stably transfected with the genes encoding each of these 5HT receptor subtypes were prepared as described above. The cell line for the 5HT1Dα, receptor, designated as Ltk−8-30-84, was deposited on Apr. 17, 1990, and accorded ATCC Accession No. CRL 10421. The cell for the 5HT1Dβ receptor, designated as Ltk−11, was deposited on Apr. 17, 1990, and accorded ATCC Accession No. CRL 10422. The cell line for the 5HT1E receptor, designated 5 HT1E-7, was deposited on Nov. 6, 1991, and accorded ATCC Accession No. CRL 10913. The cell line for the 5HT1F receptor, designated L-5-HT1F, was deposited on Dec. 27, 1991, and accorded ATCC Accession No. ATCC 10957. Membrane preparations comprising these receptors were prepared as described below, and suspended in 50 mM Tris-HCl buffer (pH 7.4 at 37° C.) containing 10 mM MgCl2, 0.2 mM EDTA, 10 μM pargyline, and 0.1% ascorbate. The binding of compounds was determined in competition binding assays by incubation for 30 minutes at 37° C. in the presence of 5 nM [^3H) serotonin. Nonspecific binding was determined in the presence of 10 μM serotonin. The bound radioligand was separated by filtration through GF/B filters using a cell harvester.

Another test has as its target T4, human 5HT1E receptor (Homo sapiens, UniProt P28566).
T4 construct: expressed in transfected cells
The test can be described thus: Binding to human 5HT1E receptor ([3H]serotonin). The settings on record: cloned human receptor; read-out: Receptor (pKi) 5HT1E (converted). The protocol: as §5

For test [2], the system named is NPY-induced feeding behavior in satiated rats. The test can be described thus: NPY-induced food intake in satiated rats. The class given is in vivo, rat. The conditions noted are these: compound 10 mg/kg i.p., then 300 pmole NPY i.c.v., 4 hours after NPY, in g (unit assumed). The method, then: For these determinations food intake maybe measured in normal satiated rats after intracerebroventricular application (i.c.v.) of NPY in the presence or absence of the test compound. Male Sprague Dawley rats ciba-Geigy AG, Sisseln, Switzerland weighing between 180 g and 220 g are used for all experiments. The rats are individually housed in stainless steel cages and maintained on an 11:13 h light-dark cycle (lights off at 18:00 h) at a controlled temperature of 21-23° C. at all times. Water and food (NAFAG lab chow pellets, NAFAG, Gossau, Switzerland) are available ad libidum.
Rats under pentobarbital anesthesia are stereotaxically implanted with a stainless steel guide cannula targeted at the right lateral ventricle. Stereotaxic coordinates, with the incisor bar set −2.0 mm below interaural line, are: −0.8 mm anterior and +1.3 mm lateral to bregma. The guide cannula is placed on the dura. […]
Food intake may be measured by placing preweighed pellets into the cages at the time of NPY injection. […] The food intake of animals treated with test compound may be calculated as a percentage of the food intake of control animals, i.e., animals treated with vehicle. Alternatively, food intake for a group of animals subjected to the same experimental condition may be expressed as the mean ±S.E.M. Statistical analysis is performed by analysis of variance using the Student-Newman-Keuls test. […]

For another test, the target named is T5, human Y1 receptor (Homo sapiens, UniProt P25929).
T5 construct: expressed in transfected cells
T5 sequence (P25929 1-384): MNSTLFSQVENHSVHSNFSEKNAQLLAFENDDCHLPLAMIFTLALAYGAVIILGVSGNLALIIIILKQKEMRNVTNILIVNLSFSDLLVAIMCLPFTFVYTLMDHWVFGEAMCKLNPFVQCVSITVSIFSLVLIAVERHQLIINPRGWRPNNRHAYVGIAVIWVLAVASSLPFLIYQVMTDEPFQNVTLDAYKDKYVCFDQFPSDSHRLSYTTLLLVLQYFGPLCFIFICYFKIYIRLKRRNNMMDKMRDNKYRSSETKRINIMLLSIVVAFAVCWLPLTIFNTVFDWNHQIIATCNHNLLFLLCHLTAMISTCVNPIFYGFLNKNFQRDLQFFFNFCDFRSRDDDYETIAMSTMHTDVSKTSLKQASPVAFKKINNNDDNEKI
The test can be described thus: Radioligand binding to cloned human Y1 receptor (125I-PYY). The settings on record: cloned human Y1, stably transfected cells, read-out: Binding Affinity (K1 (nM) vs. 125I-PYY) Human Receptor Y1.

The next test concerns the target T6, human Y5 receptor (Homo sapiens, UniProt Q15761).
T6 construct: expressed in transfected cells
T6 sequence (Q15761 1-445): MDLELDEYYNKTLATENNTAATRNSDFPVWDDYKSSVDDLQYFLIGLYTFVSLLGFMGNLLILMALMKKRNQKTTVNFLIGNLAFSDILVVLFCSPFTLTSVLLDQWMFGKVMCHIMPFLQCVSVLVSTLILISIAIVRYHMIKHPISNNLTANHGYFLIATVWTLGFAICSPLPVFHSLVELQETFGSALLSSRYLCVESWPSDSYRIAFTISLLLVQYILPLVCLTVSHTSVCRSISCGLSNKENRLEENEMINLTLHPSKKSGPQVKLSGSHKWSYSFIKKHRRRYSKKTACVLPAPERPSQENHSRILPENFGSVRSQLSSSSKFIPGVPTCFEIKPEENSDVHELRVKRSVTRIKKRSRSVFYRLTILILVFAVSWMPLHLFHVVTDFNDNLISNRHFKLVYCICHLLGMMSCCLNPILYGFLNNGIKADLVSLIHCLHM
The test is described as follows: Radioligand binding to cloned human Y5 receptor (125I-PYY). The conditions noted are these: cloned human Y5, stably transfected cells, read-out: Binding Affinity (K1 (nM) vs. 125I-PYY) Human Receptor Y5.

The next test deals with T7, cloned human Y5 receptor (Homo sapiens, UniProt Q15761).
T7 construct: expressed in transfected cells
T7 sequence (Q15761 1-445): T6 sequence (Q15761 1-445)
The test can be described thus: Functional assay: block of NPY-induced inhibition of cAMP accumulation in forskolin-stimulated LM(tk-) cells (radioimmunoassay of cAMP). The class given is cell-based. The conditions noted are these: antagonism of NPY-induced inhibition of cAMP accumulation, forskolin-stimulated LM(tk-) cells with human Y5; at least three experiments. (cAMP levels reflect the balance of adenylyl cyclase and phosphodiesterase activity.)

Where only a bound is given, the exact number is not on record here.

T2 sequence (P50391 whole entry): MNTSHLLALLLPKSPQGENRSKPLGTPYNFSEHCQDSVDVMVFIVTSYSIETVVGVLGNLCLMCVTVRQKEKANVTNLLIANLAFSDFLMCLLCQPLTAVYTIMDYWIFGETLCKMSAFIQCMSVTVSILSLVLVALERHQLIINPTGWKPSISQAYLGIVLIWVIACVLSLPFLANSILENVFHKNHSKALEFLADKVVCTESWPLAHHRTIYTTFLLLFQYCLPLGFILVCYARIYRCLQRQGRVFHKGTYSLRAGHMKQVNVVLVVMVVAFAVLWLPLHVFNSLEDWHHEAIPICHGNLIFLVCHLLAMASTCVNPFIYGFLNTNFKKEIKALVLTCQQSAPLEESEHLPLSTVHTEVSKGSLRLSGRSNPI
T4 sequence (P28566 whole entry): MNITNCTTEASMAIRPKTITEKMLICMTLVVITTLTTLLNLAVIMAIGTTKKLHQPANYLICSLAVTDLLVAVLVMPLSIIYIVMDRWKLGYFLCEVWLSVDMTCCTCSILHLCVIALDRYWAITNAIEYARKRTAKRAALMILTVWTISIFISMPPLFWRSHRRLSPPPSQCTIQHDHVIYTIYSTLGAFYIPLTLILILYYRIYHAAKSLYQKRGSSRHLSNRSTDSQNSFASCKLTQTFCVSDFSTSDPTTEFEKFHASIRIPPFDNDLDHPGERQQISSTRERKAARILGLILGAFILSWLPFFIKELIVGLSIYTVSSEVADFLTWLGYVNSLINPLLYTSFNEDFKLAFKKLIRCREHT
Experimental for human Y1 receptor: Membranes were harvested from COS-7 cells 48 hours after transient transfection. […] Large particles and debris were cleared by low speed centrifugation (200 x g, 5 min, 4° C.). […] Membranes were held on ice for up to one hour and used fresh, or flash-frozen and stored in liquid nitrogen.
Incubations were terminated by filtration over Whatman GF/C filters (pre-coated with 1% polyethyleneimine and air-dried before use), followed by washing with 5 mL of ice-cold binding buffer.

As for `O=S(=O)(NC[C@H]1CC[C@H](CNC(CO)Cc2ccc(Cl)cc2)CC1)c1cccc2ccccc12` (relative stereo) [Example 77, Naphthalene-1-sulfonic Acid trans-(4-{[2-(4-Chloro-phenyl)-1-hydroxymethyl-ethylamino]-methyl}-cyclohexylmethyl)-amide], the Ki was 851 nM on human Y2 receptor, 13100 nM on human Y4 receptor, at least 5.01 µM on human 5HT1F receptor and at least 5.01 µM on human 5HT1E receptor. For the same compound, the “Two-hour food intake, percentage of intake compared to control rats, Mean (%)” value (“Two-hour food intake, percentage of intake … (%)” below) in test [1] is 32%.
On to `Cl.O=S(=O)(NCC1CCC(CNCC2CCc3ccccc3C2)CC1)c1ccc2ccccc2c1` (centres unmarked) [Example 31], for which the “NPY-induced cumulative food intake (NPY + compound), mean ± S.E.M.” value in test [2] was found to be 3.8 ± 0.4. Besides, in [1], the “Two-hour food intake, percentage of intake … (%)” value worked out at 27%.
On to `Cl.O=S(=O)(NCC1CCC(CNCc2cccc3ccccc23)CC1)c1ccccc1C(F)(F)F` (centres unmarked) [Example 37], for which the Ki turned out to be 14500 nM on human Y1 receptor, 617 nM on human Y2 receptor, 21500 nM at human Y4 receptor and 26 nM at human Y5 receptor. For the same compound, the Kb (commonly the equilibrium dissociation constant of an antagonist, usually derived from a functional assay) at cloned human Y5 receptor came to 0.038 µM. The “Two-hour food intake, percentage of intake … (%)” value in test [1] amounted to 58%.
Consider `Cl.O=S(=O)(NCC1CCC(CNCc2ccc3ccccc3c2)CC1)c1ccccc1C(F)(F)F` (centres unmarked) [Example 38], for which the Ki came out at 13000 nM on human Y1 receptor, 1610 nM on human Y2 receptor, 18500 nM on human Y4 receptor and 9.8 nM at human Y5 receptor. On cloned human Y5 receptor, this compound gave a Kb of 0.016 µM. Moreover, the “Two-hour food intake, percentage of intake … (%)” value in test [1] is reported as 80%.
Take `Cl.Cl.O=[N+]([O-])c1ccccc1S(=O)(=O)NCC1CCC(CNCc2ccc3ccccc3n2)CC1` (centres unmarked) [Example 44]: the results for the Ki at human Y1 receptor, on human Y2 receptor and at human Y4 receptor were 23700 nM, 58200 nM and 19300 nM, respectively. For the same compound, the “Two-hour food intake, percentage of intake … (%)” value in test [1] was 73%.
`Cl.Cl.O=[N+]([O-])c1ccccc1S(=O)(=O)NCC1CCC(CNCc2ccnc3ccccc23)CC1` (centres unmarked) [Example 45]: the Ki at human Y1 receptor came to 48700 nM; at human Y2 receptor, 5280 nM; on human Y4 receptor, 63100 nM; on human Y5 receptor, 28 nM. Further, the Kb on cloned human Y5 receptor amounted to 0.049 µM. Also, in [1], the “Two-hour food intake, percentage of intake … (%)” value turned out to be 84%.
